Test results published in patent US10478426B2, “Enhancer of Zeste Homolog 2 inhibitors” (GlaxoSmithKline LLC, priority 2012, dated 2019).

molecular target: EZH2 within the PRC2 complex (Homo sapiens (Human), UniProt Q15910); test: EZH2 methyltransferase scintillation proximity assay (SPA) with PRC2 complex; format: biochemical; details: 3H-SAM methyl transfer to Histone H3 of HeLa mononucleosomes; 30 min preincubation, 1 hour reaction
Description: Compounds contained herein were evaluated for their ability to inhibit the methyltransferase activity of EZH2 within the PRC2 complex. Human PRC2 complex was prepared by co-expressing each of the 5 member proteins (FLAG-EZH2, EED, SUZ12, RbAp48, AEBP2) in Sf9 cells followed by co-purification. Enzyme activity was measured in a scintillation proximity assay (SPA) where a tritiated methyl group is transferred from 3H-SAM to a lysine residue on Histone H3 of a mononucleosome, purified from HeLa cells. Mononucleosomes were captured on SPA beads and the resulting signal is read on a ViewLux plate reader.
Part A. Compound Preparation
• 1. Prepare 10 mM stock of compounds from solid in 100% DMSO. • 2. Set up an 11-point serial dilution (1:3 dilution, top concentration 10 mM) in 100% DMSO for each test compound in a 384 well plate leaving columns 6 and 18 for DMSO controls. • 3. Dispense 100 nL of compound from the dilution plate into reaction plates (Grenier Bio-One, 384-well, Cat #784075). Part B. Reagent Preparation Prepare the Following Solutions: • 1. 50 mM Tris-HCl, pH 8: Per 1 L of base buffer, combine 1 M Tris-HCl, pH 8 (50 mL) and distilled water (950 mL). • 2. 1× Assay Buffer: Per 10 mL of 1× Assay Buffer, combine 50 mM Tris-HCl, pH 8 (9958 uL), 1 M MgCl2 (20 uL), 2 M DTT (20 uL), and 10% Tween-20 (2 uL) to provide a final concentration of 50 mM Tris-HCl, pH 8, 2 mM MgCl2, 4 mM DTT, 0.002% Tween-20. • 3. 2× Enzyme Solution: Per 10 mL of 2× Enzyme Solution, combine 1× Assay Buffer and PRC2 complex to provide a final enzyme concentration of 10 nM. • 4. SPA Bead Suspension: Per 1 mL of SPA Bead Suspension, combine PS-PEI coated LEADSeeker beads (40 mg) and ddH2O (1 mL) to provide a final concentration of 40 mg/mL. • 5. 2× Substrate Solution: Per 10 mL of 2× Substrate Solution, combine 1× Assay Buffer (9728.55 uL), 800 ug/mL mononucleosomes (125 uL), 1 mM cold SAM (4 uL), and 7.02 uM 3H-SAM (142.45 uL; 0.55 mCi/mL) to provide a final concentration of 5 ug/mL nucleosomes, 0.2 uM cold SAM, and 0.05 uM 3H-SAM. • 6. 2.67× Quench/Bead Mixture: Per 10 mL of 2.67× Quench/Bead Mixture, combine ddH2O (9358 uL), 10 mM cold SAM (267 uL), 40 mg/mL Bead Suspension (375 uL) to provide a final concentration of 100 uM cold SAM and 0.5 mg/mL SPA beads. Part C. Assay Reaction in 384-Well Grenier Bio-One Plates Compound Addition • 1. Dispense 100 nL/well of 100× Compound to test wells (as noted above). • 2. Dispense 100 nL/well of 100% DMSO to columns 6 & 18 for high and low controls, respectively. Assay • 1. Dispense 5 uL/well of 1× Assay Buffer to column 18 (low control reactions). • 2. Dispense 5 uL/well of 2× Enzyme Solution to columns 1-17, 19-24. • 3. Spin assay plates for ˜1 minute at 500 rpm. • 4. Stack the assay plates, covering the top plate. • 5. Incubate the compound/DMSO with the enzyme for 30 minutes at room temperature. • 6. Dispense 5 uL/well of 2× Substrate Solution to columns 1-24. • 7. Spin assay plates for ˜1 minute at 500 rpm. • 8. Stack the assay plates, covering the top plate. • 9. Incubate the assay plates at room temperature for 1 hour. Quench/Bead Addition • 1. Dispense 5 uL/well of the 3× Quench/Bead Mixture to columns 1-24. • 2. Seal the top of each assay plate with adhesive TopSeal. • 3. Spin assay plates for ˜1 minute at 500 rpm. • 4. Equilibrate the plates for >20 min. Read Plates • 1. Read the assay plates on the Viewlux Plate Reader utilizing the 613 nm emission filter with a 300 s read time. Reagent addition can be done manually or with automated liquid handler. • The final DMSO concentration in this assay is 1%. • The positive control is in column 6; negative control is in column 18. • Final starting concentration of compounds is 100 μM. Results
Percent inhibition was calculated relative to the DMSO control for each compound concentration and the resulting values were fit using standard IC50 fitting parameters within the ABASE data fitting software package.

EZH2 within the PRC2 complex, sequence (Q15910 whole entry): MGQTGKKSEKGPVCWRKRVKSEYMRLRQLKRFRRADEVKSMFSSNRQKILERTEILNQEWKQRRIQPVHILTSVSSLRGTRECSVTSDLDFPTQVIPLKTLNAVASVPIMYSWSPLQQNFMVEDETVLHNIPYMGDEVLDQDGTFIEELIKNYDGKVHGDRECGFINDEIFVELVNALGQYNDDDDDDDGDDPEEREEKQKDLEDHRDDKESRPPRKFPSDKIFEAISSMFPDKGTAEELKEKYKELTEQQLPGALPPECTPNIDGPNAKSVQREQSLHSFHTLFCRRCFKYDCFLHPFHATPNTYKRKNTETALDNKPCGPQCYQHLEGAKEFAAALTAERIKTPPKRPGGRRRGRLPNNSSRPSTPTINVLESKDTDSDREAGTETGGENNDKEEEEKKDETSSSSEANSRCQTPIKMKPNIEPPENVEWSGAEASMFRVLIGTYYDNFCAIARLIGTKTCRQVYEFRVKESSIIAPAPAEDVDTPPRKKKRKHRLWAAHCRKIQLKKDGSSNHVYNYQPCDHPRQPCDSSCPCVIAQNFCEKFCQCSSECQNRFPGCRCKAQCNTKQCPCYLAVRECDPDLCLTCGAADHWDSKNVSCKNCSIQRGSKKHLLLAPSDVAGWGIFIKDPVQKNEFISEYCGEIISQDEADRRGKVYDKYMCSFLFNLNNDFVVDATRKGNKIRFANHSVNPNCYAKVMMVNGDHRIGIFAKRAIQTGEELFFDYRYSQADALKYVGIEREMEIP
EZH2 within the PRC2 complex, sequence (O75530 whole entry partner): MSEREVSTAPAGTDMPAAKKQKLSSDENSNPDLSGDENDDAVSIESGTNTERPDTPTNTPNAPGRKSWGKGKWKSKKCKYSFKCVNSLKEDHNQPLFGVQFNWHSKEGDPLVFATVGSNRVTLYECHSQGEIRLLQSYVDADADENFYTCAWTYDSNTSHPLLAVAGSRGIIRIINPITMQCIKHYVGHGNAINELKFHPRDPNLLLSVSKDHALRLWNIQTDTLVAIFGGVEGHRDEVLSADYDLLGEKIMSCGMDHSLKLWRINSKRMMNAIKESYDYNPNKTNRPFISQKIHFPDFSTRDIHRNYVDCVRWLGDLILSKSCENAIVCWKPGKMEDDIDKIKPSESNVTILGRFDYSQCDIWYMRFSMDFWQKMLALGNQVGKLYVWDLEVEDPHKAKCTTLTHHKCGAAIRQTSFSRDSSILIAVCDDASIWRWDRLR
EZH2 within the PRC2 complex, sequence (Q15022 whole entry partner): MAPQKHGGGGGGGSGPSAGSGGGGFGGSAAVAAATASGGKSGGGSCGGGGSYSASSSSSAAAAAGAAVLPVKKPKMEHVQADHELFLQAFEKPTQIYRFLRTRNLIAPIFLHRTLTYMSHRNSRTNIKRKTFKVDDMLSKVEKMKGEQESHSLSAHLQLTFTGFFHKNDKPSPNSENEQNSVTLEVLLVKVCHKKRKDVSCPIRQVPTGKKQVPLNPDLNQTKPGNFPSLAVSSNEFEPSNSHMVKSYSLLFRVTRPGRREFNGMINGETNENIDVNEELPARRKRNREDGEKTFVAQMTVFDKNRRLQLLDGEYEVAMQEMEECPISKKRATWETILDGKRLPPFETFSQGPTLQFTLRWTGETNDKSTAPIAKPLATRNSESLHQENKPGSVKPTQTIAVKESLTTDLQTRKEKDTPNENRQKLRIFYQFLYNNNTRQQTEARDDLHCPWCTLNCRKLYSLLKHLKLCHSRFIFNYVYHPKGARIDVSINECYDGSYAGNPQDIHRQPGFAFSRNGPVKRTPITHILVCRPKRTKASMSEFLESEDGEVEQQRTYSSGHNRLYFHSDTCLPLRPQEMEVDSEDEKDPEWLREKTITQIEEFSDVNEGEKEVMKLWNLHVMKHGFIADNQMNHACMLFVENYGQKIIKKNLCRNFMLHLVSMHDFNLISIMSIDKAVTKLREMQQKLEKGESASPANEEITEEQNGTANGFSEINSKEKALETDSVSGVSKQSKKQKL
EZH2 within the PRC2 complex, sequence (Q09028 whole entry partner): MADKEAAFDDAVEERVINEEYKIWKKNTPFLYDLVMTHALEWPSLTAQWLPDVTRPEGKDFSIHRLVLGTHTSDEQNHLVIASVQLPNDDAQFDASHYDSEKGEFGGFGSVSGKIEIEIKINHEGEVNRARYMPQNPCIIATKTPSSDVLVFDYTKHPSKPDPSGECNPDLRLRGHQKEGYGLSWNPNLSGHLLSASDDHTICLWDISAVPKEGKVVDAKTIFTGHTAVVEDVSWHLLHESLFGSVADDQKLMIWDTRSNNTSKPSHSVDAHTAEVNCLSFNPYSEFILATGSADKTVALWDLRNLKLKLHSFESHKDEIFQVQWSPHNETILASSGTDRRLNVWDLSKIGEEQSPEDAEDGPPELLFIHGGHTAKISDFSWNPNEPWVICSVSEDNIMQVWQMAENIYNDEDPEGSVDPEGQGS
EZH2 within the PRC2 complex, sequence (Q6ZN18 whole entry partner): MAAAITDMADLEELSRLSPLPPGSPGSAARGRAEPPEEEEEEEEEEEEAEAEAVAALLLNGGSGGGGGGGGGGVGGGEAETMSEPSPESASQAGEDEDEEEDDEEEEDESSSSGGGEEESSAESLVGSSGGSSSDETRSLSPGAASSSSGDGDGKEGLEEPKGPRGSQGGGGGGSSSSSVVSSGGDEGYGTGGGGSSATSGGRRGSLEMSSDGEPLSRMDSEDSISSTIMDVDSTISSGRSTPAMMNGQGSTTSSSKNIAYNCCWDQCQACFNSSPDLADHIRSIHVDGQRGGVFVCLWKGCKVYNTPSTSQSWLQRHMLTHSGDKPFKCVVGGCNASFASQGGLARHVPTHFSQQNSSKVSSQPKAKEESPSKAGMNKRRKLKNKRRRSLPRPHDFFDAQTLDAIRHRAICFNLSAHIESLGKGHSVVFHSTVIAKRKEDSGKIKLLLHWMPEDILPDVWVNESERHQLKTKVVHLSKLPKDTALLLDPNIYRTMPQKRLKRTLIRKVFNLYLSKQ

Compound | IC50 [µM]
CCC(C)Oc1cc(Br)cc(C(=O)NCc2c(C)cc(C)[nH]c2=O)c1C (centres unmarked) [Example 20, 5-Bromo-3-(sec-butoxy)-N-((4,6-dimethyl-2-oxo-1,2-dihydropyridin-3-yl)methyl)-2-methylbenzamide] | 0.013
COc1cccc(C(=O)NCc2c(C)cc(C)[nH]c2=O)c1C [Example 36, N-((4,6-dimethyl-2-oxo-1,2-dihydropyridin-3-yl)methyl)-3-methoxy-2-methylbenzamide] | 2.5
CCC(C)Oc1cc(C#N)cc(C(=O)NCc2c(C)cc(C)[nH]c2=O)c1C (centres unmarked) [Example 44, 3-(sec-Butoxy)-5-cyano-N-((4,6-dimethyl-2-oxo-1,2-dihydropyridin-3-yl)methyl)-2-methylbenzamide] | 0.316

The remaining compounds from weak to strong by IC50, led by results:

IC50 [µM] | Compound
1 | Cc1cc(C)c(CNC(=O)c2cc(Cl)cc(NC(C)CO)c2C)c(=O)[nH]1 (centres unmarked) [Example 26, 5—Chloro-N-[(4,6-dimethyl-2-oxo-1,2-dihydro-3-pyridinyl)methyl]-3-[(2-hydroxy-1-methylethyl)amino]-2-methylbenzamide]
0.501 | CCCc1cc(C)[nH]c(=O)c1CNC(=O)c1cc(Br)cc(NC(C)C)c1C [Example 1, 5-Bromo-2-methyl-3-[(1-methylethyl)amino]-N-[(6-methyl-2-oxo-4-propyl-1,2-dihydro-3-pyridinyl)methyl]benzamide]
0.25 | Cc1cc(C)c(CNC(=O)c2cc(Cl)cc(OC(C)C)c2Cl)c(=O)[nH]1 [Example 24, 2,5-Dichloro-N-[(4,6-dimethyl-2-oxo-1,2-dihydro-3-pyridinyl)methyl]-3-[(1-methylethyl)oxy]benzamide]
0.05 | Cc1cc(Cc2ccccc2)c(CNC(=O)c2cc(Br)cc(NC(C)C)c2C)c(=O)[nH]1 [Example 4, 5-Bromo-2-methyl-3-[(1-methylethyl)amino]-N-{[6-methyl-2-oxo-4-(phenylmethyl)-1,2-dihydro-3-pyridinyl]methyl}benzamide]
0.04 | CCCc1cc(C)[nH]c(=O)c1CNC(=O)c1cc(-c2ccc(N3CCN(C)CC3)nc2)cc(NC(C)C)c1C [Example 2, 2-Methyl-3-[(1-methylethyl)amino]-N-[(6-methyl-2-oxo-4-propyl-1,2-dihydro-3-pyridinyl)methyl]-5-[6-(4-methyl-1-piperazinyl)-3-pyridinyl]benzamide]
